Calls of active or inactive are those of the source. Bounds are passed on as bounds.

Experiment [1] has as its target ATP-dependent molecular chaperone HSP82 (Candida albicans (strain WO-1) (Yeast), UniProt C4YTQ8). The experiment can be described thus: steroid-induced GRE reporter decrease in yeast – S. cerevisiae, luminescence, Hsp90 inhibitor project, dose response (AID 2400).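 Further: beta-galactosidase luminescence from glucocorticoid response element reporter as proxy for Hsp90 function; inhibitor potency where signal loss means Hsp90 inhibition.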 The format is functional, cell-based.
For experiment [2], the target named is T1, Serine/threonine-protein phosphatase (Candida dubliniensis (strain CD36 / CBS 7987 / NCPF 3949 / NRRLY-17841) (Yeast), UniProt B9W6M3).
T1 sequence (B9W6M3 whole entry): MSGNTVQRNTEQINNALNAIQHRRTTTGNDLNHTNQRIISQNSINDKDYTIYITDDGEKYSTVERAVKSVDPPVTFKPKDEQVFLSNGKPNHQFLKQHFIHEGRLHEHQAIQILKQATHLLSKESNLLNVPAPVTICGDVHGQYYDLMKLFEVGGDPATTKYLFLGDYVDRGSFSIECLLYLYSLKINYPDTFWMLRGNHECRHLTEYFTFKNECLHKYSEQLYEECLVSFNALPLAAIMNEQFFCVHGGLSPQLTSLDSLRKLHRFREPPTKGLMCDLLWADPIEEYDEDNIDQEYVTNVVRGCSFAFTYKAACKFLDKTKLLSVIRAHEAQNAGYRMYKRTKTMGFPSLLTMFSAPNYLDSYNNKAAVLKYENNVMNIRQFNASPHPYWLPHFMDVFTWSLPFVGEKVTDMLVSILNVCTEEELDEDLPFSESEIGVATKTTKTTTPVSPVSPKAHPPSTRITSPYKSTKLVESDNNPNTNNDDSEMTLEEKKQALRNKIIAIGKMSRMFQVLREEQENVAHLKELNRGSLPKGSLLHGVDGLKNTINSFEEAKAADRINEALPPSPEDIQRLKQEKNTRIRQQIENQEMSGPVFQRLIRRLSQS
Briefly: blockers of CaCl2-induced CDRE-lacZ signaling – S. cerevisiae, luminescence, secondary, dose response (AID 2388).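 Further: yeast reporter cells carrying a calcineurin-responsive lacZ construct stimulated with calcium chloride; luminescent beta-galactosidase reporter signal in whole cells rather than isolated phosphatase activity; potency for inhibition where a drop in reporter signal means calcineurin blockade.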 It counts as functional, cell-based.

For experiment [3], the target named is T1, Serine/threonine-protein phosphatase. Briefly: Fluorescence Cell-Based Secondary Assay to Identify Inhibitors of Calcineurin. [Related pubchem assays (depositor defined):AID1979, AID2007]. It counts as functional.
Experiment [4] in a line: NIH-3T3 fibroblast cytotoxicity, dose response, cytotoxicity control, cell-based, fluorescence, Alamar Blue, secondary assay (AID 2327).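 Further: NIH-3T3 mouse fibroblasts cultured with fluconazole at 8 µg/mL.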 The format is functional. A general note: Alamar Blue is a resazurin reagent that responds to reducing activity.
Experiment [5] is described as follows: fluconazole-exposed Candida albicans growth modulators – fluorescence, retest, confirmation (AID 2467). It counts as functional, cell-based.
The nature of experiment [6]: DRD fibroblast viability loss – cell-based, non-viral oncogenic, luminescence, dose response (AID 1934). It counts as functional. Particulars: Homo sapiens.
Experiment [7] is described as follows: Luminescence Cell-Based Dose Confirmation HTS to Identify Inhibitors of Platelet Dense Granule Release. [Related pubchem assays: 1663 (Primary HTS), 1678 (Summary of Project)]. The format is functional.
Experiment [8] concerns BJ. Briefly: BJ-TERT fibroblast viability loss – cell-based, RAS-independent, luminescence, dose response (AID 1933). It counts as functional. Particulars: Homo sapiens.
The subject of experiment [9] is BJ. Briefly: BJ-TERT-LT-ST fibroblast viability loss – cell-based, RAS-independent, luminescence, dose response (AID 1935).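 Further: BJ fibroblasts immortalized with TERT plus LT and ST oncogenes.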 The format is functional. Particulars: Homo sapiens.
In experiment [10] the target is Luciferin 4-monooxygenase (Photinus pyralis, UniProt P08659). The experiment can be described thus: inhibition of purified Photinus pyralis luciferase – biochemical, luminescence, dose response (AID 1891).
Luciferin 4-monooxygenase, sequence (P08659 whole entry): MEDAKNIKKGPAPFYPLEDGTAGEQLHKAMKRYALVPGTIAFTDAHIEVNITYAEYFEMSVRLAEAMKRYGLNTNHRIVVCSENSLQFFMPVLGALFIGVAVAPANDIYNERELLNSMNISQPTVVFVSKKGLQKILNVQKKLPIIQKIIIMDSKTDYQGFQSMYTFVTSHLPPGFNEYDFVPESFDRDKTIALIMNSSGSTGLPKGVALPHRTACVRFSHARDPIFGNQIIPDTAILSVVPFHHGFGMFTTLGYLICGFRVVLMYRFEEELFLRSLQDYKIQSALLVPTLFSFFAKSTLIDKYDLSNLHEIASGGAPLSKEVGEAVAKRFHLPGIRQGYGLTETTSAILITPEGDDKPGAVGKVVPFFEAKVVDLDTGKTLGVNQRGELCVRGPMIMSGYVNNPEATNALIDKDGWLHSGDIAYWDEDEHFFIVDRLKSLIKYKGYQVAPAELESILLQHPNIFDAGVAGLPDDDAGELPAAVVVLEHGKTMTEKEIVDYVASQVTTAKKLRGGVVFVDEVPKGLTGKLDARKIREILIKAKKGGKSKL
Experiment [11] in a line: HEK-293T viability loss after treatment – luminescence, T-cell screen hits, cytotoxicity control for TCR NF-kB inhibitor project, dose response (AID 489026).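 Further: cells exposed to compound about 14 hours before the viability readout.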 The format is functional, cell-based.
The test system of experiment [12] is BJ. The experiment can be described thus: cells. The format is functional, cell-based. Particulars: Homo sapiens.
A short description of experiment [13]: A549 cell cytotoxicity, dose response, cytotoxicity control, plate reader, cherry-pick, antagonist series (AID 743412). The format is functional, cell-based.
The test system of experiment [14] is HEK293. Briefly: cells. It counts as functional, cell-based. Particulars: Homo sapiens.
For experiment [15], the target named is T2, Heat shock factor protein 1 (Mus musculus, UniProt P38532).
T2 sequence (P38532 whole entry): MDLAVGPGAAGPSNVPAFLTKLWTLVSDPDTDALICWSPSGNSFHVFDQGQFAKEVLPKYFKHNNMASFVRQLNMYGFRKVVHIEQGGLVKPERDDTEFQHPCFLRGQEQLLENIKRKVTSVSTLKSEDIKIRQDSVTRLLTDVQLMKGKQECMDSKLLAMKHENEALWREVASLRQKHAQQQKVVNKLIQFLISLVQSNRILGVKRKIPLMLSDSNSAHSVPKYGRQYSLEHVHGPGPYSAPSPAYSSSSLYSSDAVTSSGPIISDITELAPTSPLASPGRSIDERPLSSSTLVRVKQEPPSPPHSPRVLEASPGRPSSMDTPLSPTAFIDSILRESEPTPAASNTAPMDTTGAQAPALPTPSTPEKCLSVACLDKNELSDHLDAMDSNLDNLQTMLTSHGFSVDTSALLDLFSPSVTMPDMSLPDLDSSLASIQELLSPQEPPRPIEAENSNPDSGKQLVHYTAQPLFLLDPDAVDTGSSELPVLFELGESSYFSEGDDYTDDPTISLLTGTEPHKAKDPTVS
The experiment can be described thus: decrease of HSF1-responsive luciferase luminescence – cell-based, NIH3T3, dose retest, confirmation (AID 2382).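 Further: NIH3T3 fibroblasts with HSF1-driven luciferase reporter stressed by proteasome inhibitor MG132; luminescence from HSF1-driven luciferase expression after 8 hours of MG132 stress.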 The format is functional.

Experiment [16] concerns the target Nucleotide-binding oligomerization domain-containing protein 2 (Homo sapiens, UniProt Q9HC29). The experiment can be described thus: inhibition of NOD2-driven NF-kB reporter – cell-based, luminescence, uHTS, HEK293 (AID 1566). It counts as functional.
Experiment [17] deals with HEK293. Briefly: cells. It counts as functional, cell-based. Particulars: Homo sapiens. The source holds these as a separate data set.
Experiment [18] in a line: viability loss in HEK293 cells – cell-based, plate reader, cherry-picked samples, cytotoxicity control, dose response (AID 743446). It counts as functional.
Experiment [19] can be described thus: blockade of melanocortin 4 receptor signaling – cell-based, plate reader, cherry pick, counter-screen for LGR2 antagonist project, dose response (AID 743444).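 Further: transfected HEK 293 cells stimulated with alpha-MSH peptide; potency of inhibitors of the alpha-MSH evoked signal.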 The format is functional. For orientation: A counterscreen serves to expose hits that act by an unwanted route or on another target.
Experiment [20] deals with T3, Microphthalmia-associated transcription factor (Homo sapiens, UniProt O75030).
T3 sequence (O75030 whole entry): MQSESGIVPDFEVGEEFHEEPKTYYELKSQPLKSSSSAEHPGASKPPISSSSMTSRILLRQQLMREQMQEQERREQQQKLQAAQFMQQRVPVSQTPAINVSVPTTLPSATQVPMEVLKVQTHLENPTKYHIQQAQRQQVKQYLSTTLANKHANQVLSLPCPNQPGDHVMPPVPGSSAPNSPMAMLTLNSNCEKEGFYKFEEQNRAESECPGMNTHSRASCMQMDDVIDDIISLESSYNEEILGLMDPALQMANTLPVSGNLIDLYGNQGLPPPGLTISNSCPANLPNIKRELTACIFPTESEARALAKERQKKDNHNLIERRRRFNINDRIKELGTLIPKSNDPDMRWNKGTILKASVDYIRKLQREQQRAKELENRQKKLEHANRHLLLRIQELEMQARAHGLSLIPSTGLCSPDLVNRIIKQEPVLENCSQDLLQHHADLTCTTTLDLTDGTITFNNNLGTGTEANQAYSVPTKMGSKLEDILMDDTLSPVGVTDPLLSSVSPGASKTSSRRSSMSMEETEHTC
Briefly: reducers of TRPM1 reporter luminescence, concentration series – cell-based, SK-MEL-5, cherry-picked, set 3, MITF inhibitor project, dose response (AID 493073).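 Further: SK-MEL-5 melanoma cells with luciferase driven by the MITF target TRPM1 promoter.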 It counts as functional.

The target of experiment [21] is Photoreceptor-specific nuclear receptor (Homo sapiens, UniProt Q9Y5X4). It counts as functional, cell-based.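 Further: CHO-S cells with Gal4-NCOR and VP16-NR2E3 two-hybrid luciferase reporter.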
Photoreceptor-specific nuclear receptor, sequence (Q9Y5X4 whole entry, the tested form may be a part): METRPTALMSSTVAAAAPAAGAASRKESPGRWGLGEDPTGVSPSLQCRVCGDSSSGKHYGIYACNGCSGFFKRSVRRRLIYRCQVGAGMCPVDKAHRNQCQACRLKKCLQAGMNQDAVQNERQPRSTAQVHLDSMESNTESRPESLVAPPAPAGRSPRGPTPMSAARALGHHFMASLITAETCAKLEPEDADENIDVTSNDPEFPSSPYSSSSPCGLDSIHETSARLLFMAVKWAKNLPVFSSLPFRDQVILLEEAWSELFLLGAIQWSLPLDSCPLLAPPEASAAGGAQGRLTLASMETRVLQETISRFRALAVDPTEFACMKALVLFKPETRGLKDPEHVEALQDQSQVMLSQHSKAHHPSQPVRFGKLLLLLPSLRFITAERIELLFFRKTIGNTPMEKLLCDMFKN
The subject of experiment [22] is HEK293. Briefly: cells. It counts as functional, cell-based. The settings on record: Homo sapiens. The source holds these as a separate data set.
The nature of experiment [23]: blockers of bursicon-stimulated LGR2 cAMP reporter – cell-based, HEK293, CRE-luciferase reporter, cherry pick, set 2, dose response (AID 743343).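 Further: transfected cells were stimulated with diluted bursicon conditioned medium after compound addition.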 It counts as functional. Background: In a reporter assay the amount or activity of a reporter protein is the signal.
The test system of experiment [24] is HEK293. Briefly: NOD2 signaling inhibitors in MDP-stimulated cells, cell-based, uHTS, luminescence (AID 2001). The format is functional. The settings on record: Homo sapiens.
The test system of experiment [25] is HEK293. Briefly: inhibition of NOD1-driven NF-kB reporter – cell-based, luminescence, uHTS, primary screen (AID 1578). The format is functional. Particulars: Homo sapiens.
Experiment [26] is described as follows: toxicity toward HepG2 liver cells – cell-based, plate reader, cherry-pick, antagonist series, cytotoxicity control, dose response (AID 743416). The format is functional.

ATP-dependent molecular chaperone HSP82, sequence (C4YTQ8 whole entry): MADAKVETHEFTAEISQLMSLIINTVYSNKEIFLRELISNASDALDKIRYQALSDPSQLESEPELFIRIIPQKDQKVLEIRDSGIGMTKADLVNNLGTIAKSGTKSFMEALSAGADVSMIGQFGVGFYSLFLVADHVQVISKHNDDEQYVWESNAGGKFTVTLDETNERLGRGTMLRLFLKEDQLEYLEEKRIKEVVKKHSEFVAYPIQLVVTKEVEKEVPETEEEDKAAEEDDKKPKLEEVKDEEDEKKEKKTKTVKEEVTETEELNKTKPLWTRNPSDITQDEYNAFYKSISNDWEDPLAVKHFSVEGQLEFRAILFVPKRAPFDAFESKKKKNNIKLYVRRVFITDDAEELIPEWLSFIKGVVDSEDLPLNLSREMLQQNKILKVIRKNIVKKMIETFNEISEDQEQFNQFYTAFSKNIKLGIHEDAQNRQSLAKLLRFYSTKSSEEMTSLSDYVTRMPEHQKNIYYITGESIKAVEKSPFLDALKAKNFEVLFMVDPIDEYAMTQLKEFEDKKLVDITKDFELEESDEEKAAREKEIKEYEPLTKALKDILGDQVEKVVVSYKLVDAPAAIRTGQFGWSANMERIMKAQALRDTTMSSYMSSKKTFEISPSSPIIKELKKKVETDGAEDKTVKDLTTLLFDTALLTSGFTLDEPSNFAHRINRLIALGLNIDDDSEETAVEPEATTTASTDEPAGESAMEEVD
Nucleotide-binding oligomerization domain-containing protein 2, sequence (Q9HC29 whole entry, the tested form may be a part): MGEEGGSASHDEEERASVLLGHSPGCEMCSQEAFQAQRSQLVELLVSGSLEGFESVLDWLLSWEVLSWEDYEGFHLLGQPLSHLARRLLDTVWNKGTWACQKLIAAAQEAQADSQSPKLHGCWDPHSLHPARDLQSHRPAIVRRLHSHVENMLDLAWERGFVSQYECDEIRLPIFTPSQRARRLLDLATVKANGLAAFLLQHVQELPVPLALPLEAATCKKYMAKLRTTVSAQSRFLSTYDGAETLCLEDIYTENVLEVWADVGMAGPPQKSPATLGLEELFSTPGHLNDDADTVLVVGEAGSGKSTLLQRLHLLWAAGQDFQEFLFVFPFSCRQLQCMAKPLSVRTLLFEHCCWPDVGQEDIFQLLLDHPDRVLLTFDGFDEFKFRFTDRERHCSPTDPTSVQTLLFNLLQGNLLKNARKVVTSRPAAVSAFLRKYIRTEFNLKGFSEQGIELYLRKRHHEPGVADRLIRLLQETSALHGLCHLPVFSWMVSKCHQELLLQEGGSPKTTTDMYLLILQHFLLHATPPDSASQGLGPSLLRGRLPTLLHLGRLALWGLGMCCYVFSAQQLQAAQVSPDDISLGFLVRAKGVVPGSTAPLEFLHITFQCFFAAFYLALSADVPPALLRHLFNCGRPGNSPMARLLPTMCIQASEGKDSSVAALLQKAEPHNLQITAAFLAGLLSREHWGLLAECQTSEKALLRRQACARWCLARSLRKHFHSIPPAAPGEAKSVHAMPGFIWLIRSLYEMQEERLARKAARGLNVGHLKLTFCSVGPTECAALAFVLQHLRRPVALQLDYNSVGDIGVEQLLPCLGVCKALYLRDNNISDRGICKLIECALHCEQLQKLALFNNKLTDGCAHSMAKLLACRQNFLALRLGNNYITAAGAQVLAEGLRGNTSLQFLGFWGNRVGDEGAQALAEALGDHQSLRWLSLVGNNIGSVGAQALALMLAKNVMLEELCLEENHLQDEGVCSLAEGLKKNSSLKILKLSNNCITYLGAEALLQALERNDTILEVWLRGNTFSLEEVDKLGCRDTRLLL

For `Cc1ccc(Nc2nc(N)c([N+](=O)[O-])c(N3CCC(C)CC3)n2)cc1C`, the concentration for a half-maximal effect (EC50) in [1] was 4.42 µM (active); in [2], > 180 µM (inactive); in experiment [3] it was 9.17 µM (active); in [4], > 150 µM (inactive); in [5], 0.207 µM (active).

`Cc1ccc(S(=O)(=O)Cc2ccc(C(=O)N3CCN(c4cccc(C)c4C)CC3)o2)cc1`: the EC50 is 13.3 µM (inconclusive) in experiment [6]; > 112 µM (not active) in [7]; 8.13 µM (inconclusive) in experiment [8]; 4.2 µM (active) in [9]; 57.2 µM (active) in experiment [10]; 18 µM (active) in experiment [12]. In addition, the IC50 in experiment [11] is > 80 µM (inactive).

For `Cc1cc(C)c(C#N)c(SCc2nnc(-c3ccccc3)o2)n1`, the AC50 was > 52 µM (inactive) in experiment [13]; > 52 µM (inactive) in experiment [18]; 0.321 µM (active) in [19]; 0.024 µM (active) in experiment [20]; 0.281 µM (active) in experiment [23]; > 52 µM (inactive) in experiment [26]. Also, the IC50 in experiment [14] is > 20 µM (inactive); in experiment [17], > 20 µM (inactive); in experiment [21] it was 35.7 µM (inactive); in [22], 6.41 µM (active); in experiment [24], 12.6 µM (inactive). The EC50 in experiment [15] was < 0.16 µM (active); in [16] it was < 0.31 µM (inactive); in experiment [25], 10.5 µM (active).

What is called EC50 is the concentration at which the effect is half-maximal. The IC50 is the concentration at which inhibition is half-maximal. The term AC50 denotes the midpoint of the concentration-response curve, whichever way the signal moves.

Source of the values: ChEMBL document CHEMBL1201862, “PubChem BioAssay data set” (2004).
